According to ChEMBL document CHEMBL1138430, “Novel tetrahydroisoquinolines are histamine H3 antagonists and serotonin reuptake inhibitors” (Bioorg Med Chem Lett, 2007):
Active and inactive are the calls of the source. No cut-off for these calls is given here.

What was measured:
[1] = target: Adenosine receptor A2a (Homo sapiens) (UniProt P29274); experiment: Binding affinity at adenosine A2A receptor at 1 uM
[2] = target: T1, 5-hydroxytryptamine receptor 1A (Homo sapiens) (UniProt P08908); experiment: Binding affinity at 5HT1A receptor at 1 uM
T1 sequence (whole entry): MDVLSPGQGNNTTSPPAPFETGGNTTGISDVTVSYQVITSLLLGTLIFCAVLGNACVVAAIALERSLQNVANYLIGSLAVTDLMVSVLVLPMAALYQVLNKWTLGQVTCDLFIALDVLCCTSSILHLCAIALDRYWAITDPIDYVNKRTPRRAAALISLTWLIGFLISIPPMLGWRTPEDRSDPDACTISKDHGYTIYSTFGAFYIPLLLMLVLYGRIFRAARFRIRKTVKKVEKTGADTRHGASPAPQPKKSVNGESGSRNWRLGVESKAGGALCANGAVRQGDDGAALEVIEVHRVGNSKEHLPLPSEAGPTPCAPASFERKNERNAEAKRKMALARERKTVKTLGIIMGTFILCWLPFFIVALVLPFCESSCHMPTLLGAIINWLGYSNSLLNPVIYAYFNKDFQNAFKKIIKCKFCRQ

[3] = target: D(1A) dopamine receptor (Homo sapiens) (UniProt P21728); experiment: Binding affinity at dopamine D1 receptor at 1 uM
Sequence of D(1A) dopamine receptor (Homo sapiens) (P21728 whole entry): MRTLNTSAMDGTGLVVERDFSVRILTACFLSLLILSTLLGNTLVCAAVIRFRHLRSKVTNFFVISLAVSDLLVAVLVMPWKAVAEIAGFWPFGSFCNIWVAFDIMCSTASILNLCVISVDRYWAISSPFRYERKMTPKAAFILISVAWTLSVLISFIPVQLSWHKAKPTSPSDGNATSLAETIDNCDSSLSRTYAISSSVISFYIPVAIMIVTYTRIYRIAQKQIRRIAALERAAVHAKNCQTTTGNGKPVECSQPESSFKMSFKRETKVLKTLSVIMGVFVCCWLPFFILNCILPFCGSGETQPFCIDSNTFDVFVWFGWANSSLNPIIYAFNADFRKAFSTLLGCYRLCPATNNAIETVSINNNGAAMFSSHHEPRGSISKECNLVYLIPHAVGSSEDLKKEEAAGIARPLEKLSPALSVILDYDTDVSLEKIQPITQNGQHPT

[4] = species on record: Homo sapiens; experiment: Binding affinity for sodium channel at 1 uM
[5] = species on record: Homo sapiens; experiment: Binding affinity at adrenergic alpha-2 receptor at 1 uM
[6] = target: 5-hydroxytryptamine receptor 5A (Homo sapiens) (UniProt P47898); experiment: Binding affinity at 5HT5A receptor at 1 uM
Sequence of 5-hydroxytryptamine receptor 5A (Homo sapiens) (P47898 whole entry): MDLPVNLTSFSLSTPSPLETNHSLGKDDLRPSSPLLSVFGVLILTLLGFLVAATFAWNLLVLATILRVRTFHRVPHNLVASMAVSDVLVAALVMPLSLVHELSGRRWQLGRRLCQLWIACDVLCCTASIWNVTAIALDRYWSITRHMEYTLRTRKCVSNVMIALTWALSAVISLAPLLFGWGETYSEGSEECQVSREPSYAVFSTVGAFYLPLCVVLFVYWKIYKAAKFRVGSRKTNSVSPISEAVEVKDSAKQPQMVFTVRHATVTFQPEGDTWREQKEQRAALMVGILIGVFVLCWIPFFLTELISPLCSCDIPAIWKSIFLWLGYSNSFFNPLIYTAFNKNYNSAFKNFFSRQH

[7] = species on record: Homo sapiens; experiment: Binding affinity at ML1 receptor at 1 uM
[8] = target: T2, 5-hydroxytryptamine receptor 3A (Homo sapiens) (UniProt P46098); experiment: Binding affinity at 5HT3 receptor at 1 uM
T2 sequence (whole entry): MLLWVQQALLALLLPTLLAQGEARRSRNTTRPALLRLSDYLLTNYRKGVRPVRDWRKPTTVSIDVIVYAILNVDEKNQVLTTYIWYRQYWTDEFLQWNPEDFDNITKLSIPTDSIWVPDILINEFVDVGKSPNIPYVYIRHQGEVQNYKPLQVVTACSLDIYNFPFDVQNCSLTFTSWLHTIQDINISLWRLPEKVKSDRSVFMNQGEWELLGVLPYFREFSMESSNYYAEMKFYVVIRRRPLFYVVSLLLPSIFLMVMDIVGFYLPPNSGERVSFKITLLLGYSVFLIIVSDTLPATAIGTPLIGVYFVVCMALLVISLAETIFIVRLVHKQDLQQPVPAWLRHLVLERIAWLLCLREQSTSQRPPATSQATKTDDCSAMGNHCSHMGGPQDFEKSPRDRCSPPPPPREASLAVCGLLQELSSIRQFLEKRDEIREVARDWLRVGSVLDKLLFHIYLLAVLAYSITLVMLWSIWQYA

[9] = target: T3, Substance-K receptor (Homo sapiens) (UniProt P21452); experiment: Binding affinity at NK2 receptor at 1 uM
T3 sequence (whole entry): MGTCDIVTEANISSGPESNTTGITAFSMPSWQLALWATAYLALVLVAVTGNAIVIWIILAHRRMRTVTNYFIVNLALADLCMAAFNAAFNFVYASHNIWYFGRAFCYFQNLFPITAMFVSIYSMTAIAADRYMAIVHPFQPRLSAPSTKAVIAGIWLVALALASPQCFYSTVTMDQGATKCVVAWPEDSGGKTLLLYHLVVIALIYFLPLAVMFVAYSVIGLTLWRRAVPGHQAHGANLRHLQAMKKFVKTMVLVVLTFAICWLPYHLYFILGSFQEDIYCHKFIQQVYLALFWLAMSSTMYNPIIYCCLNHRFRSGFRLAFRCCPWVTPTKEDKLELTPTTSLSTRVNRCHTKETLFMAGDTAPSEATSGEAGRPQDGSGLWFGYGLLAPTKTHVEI

[10] = target: T4, Muscarinic acetylcholine receptor M1 (Homo sapiens) (UniProt P11229); experiment: Binding affinity at muscarinic M1 receptor at 1 uM
T4 sequence (whole entry): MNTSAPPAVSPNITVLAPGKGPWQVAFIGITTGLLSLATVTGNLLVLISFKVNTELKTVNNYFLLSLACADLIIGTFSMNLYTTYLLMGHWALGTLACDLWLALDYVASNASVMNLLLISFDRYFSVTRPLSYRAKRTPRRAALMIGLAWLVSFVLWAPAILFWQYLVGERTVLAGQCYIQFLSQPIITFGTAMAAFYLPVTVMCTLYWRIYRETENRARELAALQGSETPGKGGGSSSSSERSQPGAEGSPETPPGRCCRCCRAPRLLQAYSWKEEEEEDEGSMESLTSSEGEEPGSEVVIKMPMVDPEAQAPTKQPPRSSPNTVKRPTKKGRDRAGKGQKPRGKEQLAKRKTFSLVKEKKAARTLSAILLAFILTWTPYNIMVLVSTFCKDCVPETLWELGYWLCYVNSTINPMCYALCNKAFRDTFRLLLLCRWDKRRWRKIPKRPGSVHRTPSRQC

[11] = target: T5, Adenosine receptor A1 (Homo sapiens) (UniProt P30542); experiment: Binding affinity at adenosine A1 receptor at 1 uM
T5 sequence (whole entry): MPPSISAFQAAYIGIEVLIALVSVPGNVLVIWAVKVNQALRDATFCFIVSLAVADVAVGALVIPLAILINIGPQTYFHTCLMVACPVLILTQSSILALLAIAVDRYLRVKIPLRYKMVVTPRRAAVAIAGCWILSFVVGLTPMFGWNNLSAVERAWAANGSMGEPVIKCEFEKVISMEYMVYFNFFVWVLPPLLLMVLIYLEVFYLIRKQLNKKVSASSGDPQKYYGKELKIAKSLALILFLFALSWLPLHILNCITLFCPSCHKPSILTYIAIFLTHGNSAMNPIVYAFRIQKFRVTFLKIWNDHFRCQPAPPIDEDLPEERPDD

[12] = target: Kappa-type opioid receptor (Homo sapiens) (UniProt P41145); experiment: Binding affinity at KOP receptor at 1 uM
Sequence of Kappa-type opioid receptor (Homo sapiens) (P41145 whole entry): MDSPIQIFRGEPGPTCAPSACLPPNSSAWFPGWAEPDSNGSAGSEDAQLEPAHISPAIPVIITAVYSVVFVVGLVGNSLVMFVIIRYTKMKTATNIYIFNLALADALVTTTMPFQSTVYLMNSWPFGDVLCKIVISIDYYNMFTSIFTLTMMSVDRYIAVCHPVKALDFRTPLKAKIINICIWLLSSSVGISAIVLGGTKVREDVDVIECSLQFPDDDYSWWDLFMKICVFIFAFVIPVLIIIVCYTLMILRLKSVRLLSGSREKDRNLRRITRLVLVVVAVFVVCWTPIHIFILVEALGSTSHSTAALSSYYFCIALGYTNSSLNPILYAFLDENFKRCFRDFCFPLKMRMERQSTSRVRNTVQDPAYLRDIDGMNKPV

[13] = target: T6, Adenosine receptor A3 (Homo sapiens) (UniProt P0DMS8); experiment: Binding affinity at adenosine A3 receptor at 1 uM
T6 sequence (whole entry): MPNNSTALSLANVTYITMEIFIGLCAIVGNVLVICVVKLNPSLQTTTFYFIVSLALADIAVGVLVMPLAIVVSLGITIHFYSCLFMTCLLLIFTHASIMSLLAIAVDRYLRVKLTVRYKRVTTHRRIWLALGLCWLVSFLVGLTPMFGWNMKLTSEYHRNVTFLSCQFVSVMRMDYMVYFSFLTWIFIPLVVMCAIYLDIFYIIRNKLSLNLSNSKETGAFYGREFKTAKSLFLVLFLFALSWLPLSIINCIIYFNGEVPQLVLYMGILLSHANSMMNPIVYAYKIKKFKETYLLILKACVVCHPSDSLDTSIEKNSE

[14] = target: D(2) dopamine receptor (Homo sapiens) (UniProt P14416); experiment: Binding affinity at dopamine D2 receptor at 1 uM
Sequence of D(2) dopamine receptor (Homo sapiens) (P14416 whole entry): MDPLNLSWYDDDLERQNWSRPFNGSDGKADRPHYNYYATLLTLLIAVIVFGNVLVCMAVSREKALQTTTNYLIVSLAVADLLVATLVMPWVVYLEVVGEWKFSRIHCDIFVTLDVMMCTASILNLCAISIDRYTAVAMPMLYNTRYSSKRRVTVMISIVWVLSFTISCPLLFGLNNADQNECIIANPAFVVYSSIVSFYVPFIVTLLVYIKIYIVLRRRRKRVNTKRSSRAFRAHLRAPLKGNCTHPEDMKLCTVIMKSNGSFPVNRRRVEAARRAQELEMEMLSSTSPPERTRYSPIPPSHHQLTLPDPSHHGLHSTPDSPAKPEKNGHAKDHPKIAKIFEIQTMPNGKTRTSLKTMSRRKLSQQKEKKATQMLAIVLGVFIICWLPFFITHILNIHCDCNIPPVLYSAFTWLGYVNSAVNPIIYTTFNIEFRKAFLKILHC

[15] = target: Neurotensin receptor type 1 (Homo sapiens) (UniProt P30989); experiment: Binding affinity at NT1 receptor at 1 uM
Sequence of Neurotensin receptor type 1 (Homo sapiens) (P30989 whole entry): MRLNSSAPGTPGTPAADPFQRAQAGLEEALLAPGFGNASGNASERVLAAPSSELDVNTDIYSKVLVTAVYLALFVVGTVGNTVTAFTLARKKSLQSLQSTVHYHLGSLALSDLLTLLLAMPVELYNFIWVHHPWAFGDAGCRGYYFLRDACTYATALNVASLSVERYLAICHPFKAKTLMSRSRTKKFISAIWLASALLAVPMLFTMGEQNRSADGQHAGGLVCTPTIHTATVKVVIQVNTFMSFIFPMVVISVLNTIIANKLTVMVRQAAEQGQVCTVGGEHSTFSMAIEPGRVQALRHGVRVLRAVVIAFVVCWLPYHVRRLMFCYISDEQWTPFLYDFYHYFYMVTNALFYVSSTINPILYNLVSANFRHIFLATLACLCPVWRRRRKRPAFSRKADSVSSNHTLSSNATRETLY

Sequence of Adenosine receptor A2a (Homo sapiens) (P29274 whole entry): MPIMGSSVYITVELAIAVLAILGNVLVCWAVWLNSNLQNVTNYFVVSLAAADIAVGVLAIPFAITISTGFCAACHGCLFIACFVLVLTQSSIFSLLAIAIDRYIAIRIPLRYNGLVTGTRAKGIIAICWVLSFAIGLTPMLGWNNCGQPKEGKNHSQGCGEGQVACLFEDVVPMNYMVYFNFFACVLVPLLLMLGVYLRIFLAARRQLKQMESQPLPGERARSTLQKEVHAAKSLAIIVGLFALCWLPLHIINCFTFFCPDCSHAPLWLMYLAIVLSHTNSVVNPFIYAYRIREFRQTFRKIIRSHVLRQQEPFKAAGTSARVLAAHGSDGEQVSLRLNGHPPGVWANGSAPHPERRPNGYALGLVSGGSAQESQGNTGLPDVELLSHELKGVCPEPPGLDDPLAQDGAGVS

Row | Activity [1] | Activity [2] | Activity [3] | Activity [4] | Activity [5] | Activity [6] | Activity [7] | Activity [8] | Activity [9] | Activity [10] | Activity [11] | Activity [12] | Activity [13] | Activity [14] | Activity [15] | SMILES
1 | inactive | inactive | inactive | inactive | inactive | inactive | inactive | inactive | inactive | inactive | inactive | inactive | inactive | inactive | inactive | COc1ccc([C@@H]2CN(C)Cc3cc(OCCCN4CCOC[C@@H]4C)ccc32)cc1
2 | inactive | inactive | inactive | inactive | inactive | inactive | inactive | inactive | inactive | inactive | inactive | inactive | inactive | inactive | inactive | CSc1ccc(C2CN(C)Cc3cc(OCCCN4CCOCC4)ccc32)cc1 (racemic)
3 | inactive | inactive | inactive | inactive | inactive | inactive | inactive | inactive | inactive | inactive | inactive | inactive | inactive | inactive | inactive | CSc1ccc(C2CN(C)Cc3cc(OCCCN4CCC(F)CC4)ccc32)cc1 (racemic)
